Reference: US11020481B2 (priority 2008, dated 2021)

Assays:
IL-6 [1] = test: IL-6 production in TNFα-induced NL20 cells (ELISA); format: cell-based, human
Protocol: (§1) Am J Physiol Lung Cell Mol Physiol 2007; 292:[…]-352; and Donnarumma G, et al. Anti-inflammatory effects of moxifloxacin and human beta-defensin 2 association in human lung epithelial cell line (A549) stimulated with lipopolysaccharide. Peptides 2007; 28:2286-2292, incorporated by reference in their entireties). […] The effect of antibiotics on cytokine levels was assessed by ELISA assay. […] The day after seeding, cells received normal growth medium without serum for an additional 24 h. […] IL-6 and IL-8 production in NL20 monolayers was induced by treatment with 10 ng/ml of TNFα. […] After 48 h, cell medium was collected, clarified and the amount of IL-6 and IL-8 released into the medium was quantified using QuantiGlo chemiluminescent ELISA kits (R&D Systems, Minneapolis, Minn.). To test the effect of antibiotics on IL-6 and IL-8 secretion, antibiotics were added to culture media along with LPS or TNF-α and processed as described above.

[2] = tested on: IL-8, IL-6, ERK1/2, MK, and NFKB; conditions: human lung epithelia cells; antibiotic concentrations less than 50 μg/ml; cited from earlier work
IL-6 [3] = test: IL-6 levels in BAL of LPS-injected mice after aerosol treatment; format: in vivo; conditions: LPS i.p., aerosol 60 mg/kg, BAL at 6 hours
Protocol: (§2) Mice (n=4) were injected with 50 μg LPS by an intraperitoneal route. […] Mice were sacrificed 6 hours after aerosolized treatment, and bronchoalveolar (BAL) fluid was collected by lavage with 1 ml saline. IL-6 and MIP-2 (murine homolog of human IL-8) levels were determined by ELISA.

HBE135 cells = test: Cytotoxicity on HBE135 cells, Alamar Blue assay; format: cell-based, human; conditions: for changes in cell viability in cytotoxicity assays: Example 5, LPS-induced HBE135 cells, 10-300 μg/ml, data not shown
Protocol: (§3) After 48 hour incubation with the antibiotic, cells were incubated in fresh growth media containing 5% Alamar Blue dye and fluorescence was recorded at 0 h and 4 h to assess antibiotic cytotoxicity.

IL-8 [4] = test: IL-8 production in LPS-induced HBE135 cells (ELISA); format: cell-based, human
Protocol: as §1

IL-6 [5] = test: IL-6 production in LPS-induced HBE135 cells (ELISA); format: cell-based, human; conditions: for decrease in IL-6 levels: Example 5, 5 μg/ml LPS
Protocol: as §1

NL20 cells = tested on: NL20 cells
Protocol: as §3

IL-8 [6] = test: IL-8 production in TNFα-induced NL20 cells (ELISA); format: cell-based, human; conditions: for levels of IL-8 decreased: p<0.005
Protocol: as §1

IL-1β = IL-1β production in LPS-stimulated THP-1 cells (ELISA); format: cell-based, human; conditions: 24 h
Protocol: The human monocyte cell line, THP-1 is an established in vitro model of human monocytic cells and is capable to secrete a greater variety of cytokines compared to NL20 and HBE135 cells. THP-1 cells were cultured in RPMI-1640 medium with 10% FBS, 0.05 mM 2-mecraptoethanol. THP-1 cells were seeded on 24-well tissue culture plates at 1×10^6 cells/ml in growth media without serum. The following day, 100 ng/ml LPS from P. aeruginosa and antibiotics were added and cells incubated for 24 hours before media collection to assess cytokine production. Quantification of IL-6, IL-8, IL-1β and TNFα production was performed as described above for NL20 cells.

IL-8 mRNA = IL-8 mRNA expression in TNFα-induced NL20 cells (real-time PCR); format: cell-based, human; conditions: NL20 monolayers, 10 ng/ml TNFα, 24 h; 100 μg/ml and 300 μg/ml
Protocol: IL-8 mRNA expression in NL20 monolayers was induced by treatment with 10 ng/ml TNFα. Levofloxacin was added simultaneously with TNFα. After 24 h incubation, the cell monolayer was washed with PBS, total cellular RNA was prepared and reverse transcription was performed using a human IL-8 specific primer and the “Cells-to-cDNA” kit from Ambion (Austin, Tex.). cDNA was subjected to real-time PCR analysis using PowerSYBR Green PCR master mix and a GeneAmp 5700 Instrument (Applied Biosystems; Warrington, UK). All data were normalized to the housekeeping gene β-actin. […] This increase correlates with the increased levels of IL-8 protein induced by TNFα.

MIP-2 = MIP-2 levels in BAL of LPS-injected mice after aerosol treatment; format: in vivo; conditions: 50 μg LPS i.p., aerosol 60 mg/kg 30 min after LPS, BAL 6 hours after treatment
Protocol: as §2

[7] = Example 3, NL20 cells induced with TNFα, 300 μg/ml
[8] = Example 5, NL20 cells, TNFα, 300 μg/ml
[9] = summary of Example 5, cultured human lung epithelial cell lines (line not given), 300 μg/ml, p<0.05
[10] = Example 5, NL20 cells, TNFα, 10 μg/ml to 100 μg/ml
[11] = summary of Example 5, cultured human lung epithelial cell lines (line not given)

**Q.** Which results are given for `O=C(O)c1cn(C2CC2)c2cc(N3CCNCC3)c(F)cc2c1=O` [ciprofloxacin]?
**A.** change in IL-6 levels (IL-6 [1]; Example 1, NL20 cells, 10 ng/ml TNFα, 48 h, 10 μg/ml and 30 μg/ml antibiotic): No significant change; IL-6 levels (IL-6 [1]; Example 1, NL20 cells, TNFα, 30 μg/ml): increase

**Q.** With `Cc1c(F)c(N2CCNC(C)C2)cc2c1c(=O)c(C(=O)O)cn2C1CC1` (centres unmarked) [grepafloxacin] as the molecule, how does the “secretion of pro-inflammatory factor such as IL-8, IL-6, ERK1/2, MK, and NFKB” value [2] read?
**A.** Its value is “can inhibit”.

**Q.** Which “IL-6 levels lower than in the saline control” value (IL-6 [3]; p<0.05) does the source give for `C[C@H]1COc2c(N3CCN(C)CC3)c(F)cc3c(=O)c(C(=O)O)cn1c23` [levofloxacin] here?
**A.** Its value is “more than 2 fold”.

**Q.** And the “changes in cell viability in cytotoxicity assays” value (HBE135 cells)?
**A.** Its value is “No significant changes”.

**Q.** And the “cytotoxicity compared to moxifloxacin and ciprofloxacin” value (HBE135 cells; HBE135 cells, 48 hour incubation, higher concentrations)?
**A.** The value was “less cytotoxic”.

**Q.** What about the “levels of IL-8 decreased” value (IL-8 [4]; Example 5, 100 μg/ml) of the same molecule?
**A.** The value was 30%.

**Q.** And the “levels of IL-8 decreased” value (IL-8 [4]; Example 5, 300 μg/ml)?
**A.** The value was 20%.

**Q.** And the “decrease in IL-6 levels” value (IL-6 [5]; 100 μg/ml)?
**A.** Its value is 45%.

**Q.** And the “decrease in IL-6 levels” value (IL-6 [5]; 300 μg/ml)?
**A.** Its value is 40%.

**Q.** And the “cytotoxicity compared to moxifloxacin and ciprofloxacin” value (NL20 cells)?
**A.** Its value is “less cytotoxic”.

**Q.** What about the “reduction in IL-8 levels” value (IL-8 [6]; [7]) of the same molecule?
**A.** The value was ~5 fold.

**Q.** And the “levels of IL-8 decreased” value (IL-8 [6]; Example 5, NL20 cells, TNFα, 100 μg/ml)?
**A.** Its value is 50%.

**Q.** What about the “levels of IL-8 decreased” value (IL-8 [6]; [8]) of the same molecule?
**A.** Its value is 60%.

**Q.** What about the “reduced levels of IL-8” value (IL-8 [6]; [9]) of the same molecule?
**A.** Its value is 2 fold.

**Q.** What about the “decrease in IL-1I3 levels” value (IL-1β; 100 μg/ml) of the same molecule?
**A.** Its value is 40%.

**Q.** And the “decrease in IL-1I3 levels” value (IL-1β; 300 μg/ml)?
**A.** Its value is 70%.

**Q.** What about the “level of IL-8 mRNA expression” value (IL-8 mRNA) of the same molecule?
**A.** The value was “no significant effect”.

**Q.** What about the “reduction in IL-6 levels” value (IL-6 [1]; [7]) of the same molecule?
**A.** The value was ~10 fold.

**Q.** And the “reduction in IL-6 levels” value (IL-6 [1]; Example 5, NL20 cells, 10 ng/ml TNFα, 100 μg/ml, p<0.005)?
**A.** Its value is 2 fold.

**Q.** What about the “reduction in IL-6 levels” value (IL-6 [1]; Example 5, NL20 cells, 10 ng/ml TNFα, 300 μg/ml, p<0.005) of the same molecule?
**A.** The value was 4 fold.

**Q.** What about the “reduced levels of IL-6” value (IL-6 [1]; [9]) of the same molecule?
**A.** Its value is 4 fold.

**Q.** Which results are given for `NC[C@H]1O[C@H](O[C@H]2[C@H](O)[C@@H](O[C@H]3O[C@H](CO)[C@@H](O)[C@H](N)[C@H]3O)[C@H](N)C[C@@H]2N)[C@H](N)C[C@@H]1O` [tobramycin]?
**A.** IL-6 levels compared to the saline control (IL-6 [3]): increase; changes in cell viability in cytotoxicity assays (HBE135 cells): No significant changes; levels of IL-6 (IL-6 [5]; Example 5, LPS, 10 μg/ml, 30 μg/ml, or 100 μg/ml): did not affect; increased levels of IL-6 (IL-6 [5]; Example 5, LPS, 300 μg/ml): 30%; production of IL-8 (IL-8 [6]; [10]): did not significantly affect; effect on IL-8 (IL-8 [6]; [11]): no effect; production of IL-6 (IL-6 [1]; [10]): did not significantly affect; IL-6 production (IL-6 [1]; [8]): increase; increased IL-6 levels (IL-6 [1]; [11]): 50%; mean MIP-2 levels (MIP-2): 502 pg/mL
